Experimental data taken from US20190077774A1, “PEROXISOME PROLIFERATOR-ACTIVATED RECEPTOR AGONISTS” (City of Hope, priority 2017, published 2019).

Columns and labels:
Format in all cases: in vivo
[1] = Blood glucose in treated mice; details: after 4 days (FIG. 16)
Text: FIG. 16. Enhanced PPARα expression and/or activity (particularly in concert with PGC-1α) is expected to increase blood glucose by upregulating gluconeogenic enzymes like PEPCK.
(§1) Next, we would like to investigate the therapeutic potential of DY121 to see if it could be candidate for treating NAFLD/NASH. Note that the pathogenesis of NASH has not yet been fully elucidated so far; however, the ‘two-hit’ theory is widely accepted. The first hit is the accumulation of fatty acids in the liver to cause steatosis. […] The newly produced PPARα agonist DY121 and its analogs, as well as WY100=WY14643 and GW3 (GW7647), were evaluated in C57Bl/6J female mice for their ability to alter serum triglyceride, liver gene expression, and glucose. Fibric acid derivatives (100 mg/kg/day) was used as a control, WY100 (WY14, 643, 100 mg/kg/day), GW3 (GW7647-positive control, 3 mg/kg/day), DY121 (˜3 mg/kg/day), respectively. DY series compounds and controls administered once to C57Bl/6J female mice at 8 weeks of age. Mice were treated at 3 mg/kg for all compounds except WY14643 (100 mg/kg).

[2] = tested on: PPARα target genes in the liver; assay: Liver gene expression of PPARα targets in treated mice (RT-qPCR); details: for Cyp4A3 expression: chronic treatment (FIG. 13); for ACADM expression: time course (FIG. 18)
Text: FIG. 6. […] Data in same order as triglyceride suppression (FIG. 5). apo CIII and LPL expression inversely correlate with triglyceride suppression for many, but not all, compounds. ACOX1 and Cyp4A3 expression correlate with triglyceride suppression for many, but not all, compounds.
The following oligonucleotide primers were used to amplify insertion sequences: for PPARα, FW-5′-[…]-3′ (SEQ ID NO:1) and Rev-5′-[…]-3′ (SEQ ID NO:2); for RXRα, FW-5′ […]-3′ (SEQ ID NO:3) and Rev-5′-[…]-3′ (SEQ ID NO:4). It has been well established that PPARα agonists fibrates reduce plasma triglycerides largely by inducing hepatic PPARα-mediated transcription of key proteins in hepatic long-chain fatty acid […], such as CPT1 (carnitine palmitoyltransferase-1). DY121 promoted the expression of PPARα, CPT1, and LPL involved in free fatty acid β-oxidation. The mRNA expressions of the PPARα-regulated genes CPT-Ia and ACADM were measured by real-time quantitative-PCR (RT-qPCR). […] A structural specificity of DY121 may be responsible for this regulation. PPARα is predominantly expressed in liver. PPARα modulates fatty acid catabolism in the liver. We next measured the mRNA expression of PPARα target genes in the liver. PPARα agonists exert their actions and attributed to the activation of PPARα which in turn effects an increase in LPL (lipoprotein lipase) gene expression and transrepression of apoC-III (apolipoprotein C-III). Activation of PPARα by its modulators can increase PPARα levels and activate PPARα pathways, leading to increased fatty-acid oxidation and reduction of oxidative stress. DY121 and its analogs induced the expression of PPARα-regulated genes involved in lipid, glucose, and cholesterol metabolism, such as ACOX1 (acyl-CoA oxidase) and Cyp4A3 (cytochrome P450 gene subfamily). Members of the CYP4A gene subfamily catalyze the oxygenation of biologically important fatty acids.
as §1, with “DY series compounds and controls administered once to C57Bl/6J female mice at 8 weeks of age. Mice were treated at 3 mg/kg for all compounds except WY14643 (100 mg/kg).” left out

C57Bl/6J female mice = assay: Serum triglyceride and lipid effects in C57Bl/6J female mice; details: 7 day period (FIG. 10)
[3] = Body weight and food intake of treated mice; details: time course over 7 days (FIG. 9)
Procedure: as §1

| Structure (SMILES) | glucose [1] | liver CPT-Ia expression ([2]; chronic (>3 d) treatment (FIG. 17)) | Cyp4A3 expression ([2]; liver) | ACADM expression [2] | apoCIII expression ([2]; liver, chronic treatment up to 7 days (FIG. 11)) | triglycerides, chronic treatment (C57Bl/6J female mice) | weight [3] |
| --- | --- | --- | --- | --- | --- | --- | --- |
| CC(C)(Sc1ccc(CCN(CCCCC2CCCCC2)C(=O)NC2CCCCC2)cc1)C(=O)O [GW7647, reference compound] | increased after 4 days | upregulated | consistently | upregulates |  |  |  |
| Cc1cccc(Nc2cc(Cl)nc(SCC(=O)O)n2)c1C [WY14643, reference compound] | increased after 4 days |  | most greatly | upregulates | suppressed apoCIII only after 7 days treatment | suppressed triglycerides over the entire 7 day period | caused acute weight loss |
